Measurements taken from PMC3463759 (Clinical cancer research : an official journal of the …, 2012).
Values joined by “and” are separate entries in the source; they are usually repeats but may differ in a detail not shown here. Equal values may be shown once. Read-outs that look alike come from different tables or passages of the source.

How the values were obtained:
[1] = system: recurrent or persistent ovarian cancer; settings: single agent 100 mg daily; ref Personal communication, Dr. Russell J. Schilder; cited from earlier work
[2] = system: solid tumors; settings: single agent dasatinib; cited from earlier work
[3] = cited from earlier work
[4] = Phase I 3+3 dose escalation: DLT, MTD, recommended phase II dose
[5] = system: advanced or recurrent epithelial ovarian, peritoneal, or tubal cancer; experiment: Response
[6] = Pharmacokinetics of dasatinib in plasma; settings: for AUC: 100 mg, AUC(TAU), TAU = 24 h
[7] = all patients (N=20), all cycles
[8] = cohort 1 (dasatinib 100 mg), n patients
[9] = cohort 2 (dasatinib 120 mg), n patients
[10] = cohort 3 (dasatinib 150 mg), n patients
[11] = dasatinib 100 mg qd + paclitaxel + carboplatin, N=6, all cycles, patients (%)
[12] = dasatinib 120 mg qd + paclitaxel + carboplatin, N=3, all cycles, patients (%)
[13] = paclitaxel and dasatinib, Cycle 2 Day 1, N=18
[14] = with paclitaxel (Cycle 2 Day 1) vs dasatinib alone (Cycle 1 Day 15)

For `Cc1nc(Nc2ncc(C(=O)Nc3c(C)cccc3Cl)s2)cc(N2CCN(CCO)CC2)n1` [dasatinib, N-(2-chloro-6-methyl-phenyl)-2-(6-(4-(2-hydroxyethyl)-piperazin-1-yl)-2-methylpyrimidin-4-ylamino)thiazole-5-carboxamide], the “Grade 3 and 4 neutropenia and thrombocytopenia” value [1] is given as “not observed”, the “cases of grade 3 anemia” value [1] is given as 1 and the “median PFS” value [1] is given as 2.1 months. The responses [1] was “no responses”, the “best clinical response: PRs” value [2] was 1–5% and the “best clinical response: stable disease” value [2] was 5–23%. For the same compound, the “dose modifications secondary to hematologic toxicity” value (46/95 dose modifications) was 48%, the “patients reporting fatigue (any grade)” value (all patients) was “Ninety” and the “fatigue grade 3” value [7] was 10%. The “thrombocytopenia grade 3–4” value [7] was 35%, the “patients requiring dose modifications” value (cohort 1 (dasatinib 100 mg)) was 100% and the urinary tract infection (cohort 1 (dasatinib 100 mg)) was 1. The “grade 1 hyponatremia” value (cohort 1 (dasatinib 100 mg), n) was 1, the “grade 1 sinus pain” value (cohort 1 (dasatinib 100 mg), n) was 9 Pain toxicity also included the following: (1) grade 2 neuralgia (n=1), grade 1 sinus pain (n=1), and grade 1 throat pain (n=1) in cohort 1; and (2) grade 1 back pain (n=1) and grade 1 extremity pain (n=1) in cohort 2 and the “grade 1 throat pain” value (cohort 1 (dasatinib 100 mg), n) was 9 Pain toxicity also included the following: (1) grade 2 neuralgia (n=1), grade 1 sinus pain (n=1), and grade 1 throat pain (n=1) in cohort 1; and (2) grade 1 back pain (n=1) and grade 1 extremity pain (n=1) in cohort 2. For the same compound, the “grade 2 neuralgia” value (cohort 1 (dasatinib 100 mg), n) was 9 Pain toxicity also included the following: (1) grade 2 neuralgia (n=1), grade 1 sinus pain (n=1), and grade 1 throat pain (n=1) in cohort 1; and (2) grade 1 back pain (n=1) and grade 1 extremity pain (n=1) in cohort 2, the “pulmonary toxicity, grade 1 other unspecified etiology” value (cohort 1 (dasatinib 100 mg), n) was 10 Pulmonary toxicity also included the following: (1) grade 1 other unspecified etiology (n=1) in cohort 1; and (2) grade 2 hypoxia (n=1 in cohort 2 and the “gastrointestinal toxicity, other unspecified etiologies, grade 1” value [8] was 5 Gastrointestinal toxicity included other unspecified etiologies: (1) grade 1 (n=1) and grade 2 (n=1) in cohort 1; (2) grade 1 (n=1) in cohort 2; and (3) grade 1 (n=1) in cohort 3. For the same compound, the “gastrointestinal toxicity, other unspecified etiologies, grade 2” value [8] was 5 Gastrointestinal toxicity included other unspecified etiologies: (1) grade 1 (n=1) and grade 2 (n=1) in cohort 1; (2) grade 1 (n=1) in cohort 2; and (3) grade 1 (n=1) in cohort 3, the “grade 1 dehydration” value [8] was 4 Gastrointestinal toxicity also included the following: (1) grade 1 dehydration (n=1) in cohort 1; (2) grade 1 distension (n=1), grade 1 xerostomia (n=1), grade 1 gastritis (n=1) in cohort 2; and (3) grade 1 xerostomia (n=1) in cohort 3 and the “grade 1 joint-function toxicity” value [8] was 1 Additional toxicities in cohort 1 included musculoskeletal toxicity characterized by grade 1 joint-function toxicity (n=1) and grade 1 muscular complaints (n=1). The grade 3 myalgia is reported under pain. The “grade 1 muscular complaints” value [8] was 1 Additional toxicities in cohort 1 included musculoskeletal toxicity characterized by grade 1 joint-function toxicity (n=1) and grade 1 muscular complaints (n=1). The grade 3 myalgia is reported under pain, the “cases of grade 1 somnolence/depressed level of consciousness” value (cohort 2 (dasatinib 120 mg)) was 8 Neurologic toxicity included one case of grade 1 somnolence/depressed level of consciousness in cohort 2 and the “patients requiring dose modifications” value (cohort 2 (dasatinib 120 mg)) was 67%. For the same compound, the “grade 1 back pain” value (cohort 2 (dasatinib 120 mg), n) was 9 Pain toxicity also included the following: (1) grade 2 neuralgia (n=1), grade 1 sinus pain (n=1), and grade 1 throat pain (n=1) in cohort 1; and (2) grade 1 back pain (n=1) and grade 1 extremity pain (n=1) in cohort 2, the “grade 1 extremity pain” value (cohort 2 (dasatinib 120 mg), n) was 9 Pain toxicity also included the following: (1) grade 2 neuralgia (n=1), grade 1 sinus pain (n=1), and grade 1 throat pain (n=1) in cohort 1; and (2) grade 1 back pain (n=1) and grade 1 extremity pain (n=1) in cohort 2 and the “grade 1 hypokalemia” value (cohort 2 (dasatinib 120 mg), n) was 1. For the same compound, the “grade 1 hypomagnesemia” value (cohort 2 (dasatinib 120 mg), n) was 1, the “grade 2 hypoxia” value (cohort 2 (dasatinib 120 mg), n) was 10 Pulmonary toxicity also included the following: (1) grade 1 other unspecified etiology (n=1) in cohort 1; and (2) grade 2 hypoxia (n=1 in cohort 2 and the “gastrointestinal toxicity, other unspecified etiologies, grade 1” value [9] was 5 Gastrointestinal toxicity included other unspecified etiologies: (1) grade 1 (n=1) and grade 2 (n=1) in cohort 1; (2) grade 1 (n=1) in cohort 2; and (3) grade 1 (n=1) in cohort 3. For the same compound, the “grade 1 distension” value [9] was 4 Gastrointestinal toxicity also included the following: (1) grade 1 dehydration (n=1) in cohort 1; (2) grade 1 distension (n=1), grade 1 xerostomia (n=1), grade 1 gastritis (n=1) in cohort 2; and (3) grade 1 xerostomia (n=1) in cohort 3, the “grade 1 gastritis” value [9] was 4 Gastrointestinal toxicity also included the following: (1) grade 1 dehydration (n=1) in cohort 1; (2) grade 1 distension (n=1), grade 1 xerostomia (n=1), grade 1 gastritis (n=1) in cohort 2; and (3) grade 1 xerostomia (n=1) in cohort 3 and the “grade 1 xerostomia” value [9] was 4 Gastrointestinal toxicity also included the following: (1) grade 1 dehydration (n=1) in cohort 1; (2) grade 1 distension (n=1), grade 1 xerostomia (n=1), grade 1 gastritis (n=1) in cohort 2; and (3) grade 1 xerostomia (n=1) in cohort 3. For the same compound, the “patients requiring dose modifications” value (cohort 3 (dasatinib 150 mg)) was 91%, the “grade 1 elevated alkaline phosphatase” value (cohort 3 (dasatinib 150 mg), n) was 7 Metabolic toxicities also included the following: grade 1 elevated transaminases (n=1), grade 1 elevated alkaline phosphatase (n=1), and proteinuria (grade 1 (n=1), grade 2 (n=1)) in cohort 3 and the “grade 1 elevated transaminases” value (cohort 3 (dasatinib 150 mg), n) was 7 Metabolic toxicities also included the following: grade 1 elevated transaminases (n=1), grade 1 elevated alkaline phosphatase (n=1), and proteinuria (grade 1 (n=1), grade 2 (n=1)) in cohort 3. For the same compound, the “grade 1 hyponatremia” value (cohort 3 (dasatinib 150 mg), n) was 2, the “grade 2 hypocalcemia” value (cohort 3 (dasatinib 150 mg), n) was 1 and the “grade 3 hypercalcemia” value (cohort 3 (dasatinib 150 mg), n) was 1. For the same compound, the “hypokalemia grade 1” value (cohort 3 (dasatinib 150 mg), n) was 3, the “hypokalemia grade 4” value (cohort 3 (dasatinib 150 mg), n) was 1 and the “hypomagnesemia grade 1” value (cohort 3 (dasatinib 150 mg), n) was 2. The “hypomagnesemia grade 2” value (cohort 3 (dasatinib 150 mg), n) was 1, the “hypophosphatemia grade 2” value (cohort 3 (dasatinib 150 mg), n) was 2 and the “hypophosphatemia grade 3” value (cohort 3 (dasatinib 150 mg), n) was 1. For the same compound, the “proteinuria grade 1” value (cohort 3 (dasatinib 150 mg), n) was 7 Metabolic toxicities also included the following: grade 1 elevated transaminases (n=1), grade 1 elevated alkaline phosphatase (n=1), and proteinuria (grade 1 (n=1), grade 2 (n=1)) in cohort 3, the “proteinuria grade 2” value (cohort 3 (dasatinib 150 mg), n) was 7 Metabolic toxicities also included the following: grade 1 elevated transaminases (n=1), grade 1 elevated alkaline phosphatase (n=1), and proteinuria (grade 1 (n=1), grade 2 (n=1)) in cohort 3 and the “gastrointestinal toxicity, other unspecified etiologies, grade 1” value [10] was 5 Gastrointestinal toxicity included other unspecified etiologies: (1) grade 1 (n=1) and grade 2 (n=1) in cohort 1; (2) grade 1 (n=1) in cohort 2; and (3) grade 1 (n=1) in cohort 3. The “grade 1 epitaxis” value [10] was 1, the “grade 1 facial and neck edema” value [10] was 1 and the “grade 1 weight loss” value [10] was 2. The “grade 1 xerostomia” value [10] was 4 Gastrointestinal toxicity also included the following: (1) grade 1 dehydration (n=1) in cohort 1; (2) grade 1 distension (n=1), grade 1 xerostomia (n=1), grade 1 gastritis (n=1) in cohort 2; and (3) grade 1 xerostomia (n=1) in cohort 3, the “grade 3 hypotension” value [10] was 1 and the “Allergy, Grade 3” value [11] was 1 (17). The “Dermatogic: Alopecia, Grade 2” value [11] was 6 (100), the “Dermatogic: Pruritis, Grade 2” value [11] was 1 (17) and the “Gastrointestinal: Anorexia, Grade 1” value [11] was 2 (33). The “Gastrointestinal: Mucositis/Stomatitis, Grade 1” value [11] was 2 (33), the “Neurologic: Ocular, Grade 1” value [11] was 1 (17) and the “Pain: Joint, Grade 2” value [11] was 2 (33). The “Pain: Muscle, Grade 2” value [11] was 1 (17), the “Thrombocytopenia, Grade 1” value [11] was 2 (33) and the “Thrombocytopenia, Grade 2” value [11] was 1 (17). For the same compound, the “Thrombocytopenia, Grade 3” value [11] was 1 (17), the “Thrombocytopenia, Grade 4” value [11] was 1 (17) and the “fatigue grade 3” value [11] was 2 (33). For the same compound, the “Allergy, Grade 3” value [12] was 1 (33), the “Dermatogic: Alopecia, Grade 1” value [12] was 1 (33) and the “Dermatogic: Alopecia, Grade 2” value [12] was 2 (67). For the same compound, the “Gastrointestinal: Anorexia, Grade 1” value [12] was 3 (100), the “Gastrointestinal: Mucositis/Stomatitis, Grade 1” value [12] was 1 (33) and the “Neurologic: Ocular, Grade 1” value [12] was 1 (33). The “Pain: Joint, Grade 2” value [12] was 1 (33), the “Thrombocytopenia, Grade 3” value [12] was 1 (33) and the “clinically-significant pleural effusions, ascites, or cardiac issues” value (in vivo) was “not observed”. For the same compound, the other infections (in vivo) was “Two”, the “patient deaths during the treatment phase” value (in vivo) was “no patient deaths” and the “reports of infection associated with febrile neutropenia” value (in vivo) was “one”. For the same compound, the incidence of effusions ([3]; 140 mg daily) was 9%, the severe pericardial effusions [3] was 1% and the severe pleural effusions [3] was 5%. The “grade 3 to 4 hematologic toxicity” value ([3]; patients with solid tumors) was 3–6%, the DLT observed ([4]; dasatinib 120 mg daily, paclitaxel 175 mg/m2, carboplatin AUC 6) was “no DLTs” and the DLT observed ([4]; dasatinib 150 mg daily, paclitaxel 175 mg/m2, carboplatin AUC 6, first cycle) was “no DLTs”. For the same compound, the “grade 4 neutropenia at 2 weeks” value ([4]; first three patients of the dasatinib 150 mg daily cohort) was “all three patients”, the “predefined MTD” value ([4]; in combination with paclitaxel and carboplatin, doses up to 150 mg daily) was “not reached” and the “complete responses (CR)” value ([5]; 3/20) was 15%. For the same compound, the “partial responses (PR)” value ([5]; 5/20) was 25%, the PFS6-month actuarial estimate ([5]; 95% confidence interval 69–100%) was 86% and the “median OS” value ([5]; in vivo) was 16.2 months. The “median PFS” value ([5]; in vivo) was 7.8 months, the “T-HALF, Mean (SD)” value ([6]; dasatinib alone, Cycle 1 Day 15, N=14) was 6.17 h and 6.17 (2.32) h and the Tmax ([6]; human, plasma, oral) was 2 h. The AUC ([6]; human, plasma, oral, Geo Mean (%CV), dasatinib alone, Cycle 1 Day 15, N=14, dose-normalized to 100 mg) was 478 ng·h/mL, the AUC ([6]; human, plasma, oral, Geo Mean (%CV), paclitaxel and dasatinib, Cycle 2 Day 1, N=18, dose-normalized to 100 mg) was 415 ng·h/mL and the Cmax ([6]; human, plasma, oral, Cmax, Geo Mean (%CV), paclitaxel and dasatinib, Cycle 2 Day 1, N=18, dose-normalized to 100 mg) was 78 ng/mL. The “inter-individual variability (%CV) for exposure” value ([6]; in vivo) was 40–90%, the “T-HALF, Mean (SD)” value [6, 13] was 5.27 h and 5.27 (1.26) h and the “Tmax, Median (min, max)” value [6, 13] was 2.00 (0.50, 6.00) h. The “reduction of geometric mean AUC(0-T)” value [6, 14] was 11% and the “reduction of geometric mean AUC(TAU)” value [6, 14] was 13%.
